pIC50: −log10 of the molar value. Where “and” joins values, the source holds several entries; their conditions need not be identical. Equal entries are not always repeated.
The molecules below were run against Genome polyprotein (dengue virus type 2, UniProt P29990).
Sequence of Genome polyprotein (P29990 1346-1475 limits assumed): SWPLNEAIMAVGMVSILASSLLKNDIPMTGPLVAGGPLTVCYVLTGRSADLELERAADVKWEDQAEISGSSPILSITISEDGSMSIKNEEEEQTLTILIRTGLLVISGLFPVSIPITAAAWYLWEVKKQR
Sequence of Genome polyprotein (P29990 1476-2093 limits assumed): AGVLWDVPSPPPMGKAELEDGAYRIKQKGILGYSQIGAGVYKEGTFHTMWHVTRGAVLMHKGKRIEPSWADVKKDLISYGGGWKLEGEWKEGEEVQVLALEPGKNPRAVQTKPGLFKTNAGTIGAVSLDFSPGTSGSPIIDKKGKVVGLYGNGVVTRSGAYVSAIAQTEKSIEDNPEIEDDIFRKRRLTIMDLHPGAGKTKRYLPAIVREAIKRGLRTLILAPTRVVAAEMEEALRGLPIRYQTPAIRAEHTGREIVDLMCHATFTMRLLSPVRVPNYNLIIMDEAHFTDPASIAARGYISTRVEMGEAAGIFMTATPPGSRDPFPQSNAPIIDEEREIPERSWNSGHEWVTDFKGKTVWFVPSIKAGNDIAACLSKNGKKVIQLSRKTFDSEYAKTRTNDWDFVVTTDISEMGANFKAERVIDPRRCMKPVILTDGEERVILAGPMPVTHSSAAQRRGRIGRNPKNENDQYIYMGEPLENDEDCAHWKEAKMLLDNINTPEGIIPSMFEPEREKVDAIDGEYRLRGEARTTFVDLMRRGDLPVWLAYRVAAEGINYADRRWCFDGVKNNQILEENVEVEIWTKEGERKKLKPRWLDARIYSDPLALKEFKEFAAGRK
Assay type: functional, Thailand/16681/1984
For `c1ccc2nc(SCc3cn4ccccc4n3)cnc2c1`, the pIC50 was less than 4.00.
Work on `c1ccc(C2CCN(Cc3ccc4nccnc4c3)CC2)nc1` yielded a pIC50 of less than 4.00.
Work on `c1cc2sccc2c(N2CCN(Cc3ccc4cn[nH]c4c3)CC2)n1` yielded a pIC50 of less than 4.00.
`Clc1ccc2ncn(Cc3ccc4c(c3)CNC4)c2c1` gave a pIC50 of less than 4.00.
`Clc1ccc2c(c1)ncn2Cc1ccc(-c2nn[nH]n2)cc1` showed a pIC50 of less than 4.00.
Molecule `O=C(Nc1ccc2c(c1)CNC2)c1ncc(Br)s1` has a pIC50 of less than 4.00.
For `O=C(Nc1ccc2c(c1)CNC2)c1ncnc2ccsc12`, the pIC50 was less than 4.00.
`O=C(c1cc(Cl)cc2[nH]ncc12)N1CCC[C@H]1C1CCNCC1` showed a pIC50 of less than 4.00.
`O=C1CCc2cc(NC(=O)c3cc(Cl)cc4[nH]ncc34)ccc2N1` showed a pIC50 of less than 4.00.
`O=C(O)c1sc2cccnc2c1Br` gave a pIC50 of less than 4.00.
In the case of `FC(F)(F)c1nc(CNCc2cocn2)cs1`, the pIC50 was less than 4.00.
`Brc1cnn(C2CCN(Cc3csnn3)CC2)c1` was tested, and the pIC50 was less than 4.00.
Molecule `O=Cc1ccc(N2CCC(C(=O)N3CCN(c4ccc([N+](=O)[O-])cc4C(F)(F)F)CC3)CC2)cc1` has a pIC50 of less than 4.00.
For `COc1ccc2c(O)nn(S(=O)(=O)c3ccc(C(=O)O)cc3)c2c1`, the pIC50 was less than 4.00.
For `COc1nc(Cl)c(CSc2nc(C)co2)s1`, the pIC50 was less than 4.00.
Work on `NC(=O)c1ccc(Cn2nnc(C=Cc3ccccc3)n2)cc1` yielded a pIC50 of less than 4.00.
Work on `[O-][S@@+](Cc1nc(-c2cccs2)no1)c1cccs1` yielded a pIC50 of less than 4.00.
With `O=Cc1ccc(N2CCC(C(=O)Nc3cccc(Br)n3)CC2)cc1` the pIC50 was 4.84.
`Cc1nnnn1Cc1ncc(Br)s1` showed a pIC50 of less than 4.00.
`O=Cc1ccc(N2CCC(C(=O)NCCc3ccc(O)c(O)c3)CC2)cc1` was tested, and the pIC50 was 4.46.
For `O=C(O)c1c(Br)sc2nnsc12`, the pIC50 was 4.16.
Molecule `C[S@@+]([O-])c1nncn1Cc1ccc(Cl)s1` has a pIC50 of less than 4.00.
With `O=S(=O)(CCOc1ccccc1)c1nccs1` the pIC50 was less than 4.00.
Molecule `O=c1[nH]c(CSc2ccccc2Cl)nc2ccsc12` has a pIC50 of less than 4.00.
`CN1[C@@H]2CCC[C@H]1C[C@@H](NC(=O)C1CCN(c3ccc(C=O)cc3)CC1)C2` showed a pIC50 of 4.01.
`Cc1nnc(CSc2ncnc3sccc23)o1` showed a pIC50 of less than 4.00.
For `c1nnc(SCCCSc2nncs2)s1`, the pIC50 was less than 4.00.
`O=c1ccn(Cc2cc(=O)n3ccccc3n2)c2ccsc12` was tested, and the pIC50 was less than 4.00.
For `Brc1nc(Br)n(Cc2cscn2)n1`, the pIC50 was less than 4.00.
In the case of `Cn1ncnc1Sc1nc(C2CCCC2)ns1`, the pIC50 was less than 4.00.
Molecule `NCc1cccc(NC(=O)[C@@H](NC(=O)OCc2ccccc2)c2cccc(OC[C@H]3CCCO3)c2)c1` has a pIC50 of less than 4.00.
`NCCCOc1cc(-c2ccc(N)nc2)cc2c1COB2O` was tested, and the pIC50 was less than 4.00.
In the case of `O=c1c2ccccc2nnn1CSc1nnc(-c2ccccc2)o1`, the pIC50 was less than 4.00.
In the case of `COCc1nn(CC#Cc2ccc(Cl)cc2)c(=O)o1`, the pIC50 was less than 4.00.
Work on `[O-][S@@+](Cc1ncccn1)c1ncccc1Br` yielded a pIC50 of less than 4.00.
`COc1ccc(F)cc1-c1ccc(S(=O)(=O)Nc2ccc(Cl)cc2C(N)=O)cc1` gave a pIC50 of 4.55.
`O=C(Nc1cc(Cl)cc(C(=O)Nc2ccc3c(c2)C[C@H](F)C3)c1)OCc1ccccc1` was tested, and the pIC50 was less than 4.00.
`O=S(=O)(c1cccs1)N1CCN(CC=Cc2ccccc2)CC1` gave a pIC50 of less than 4.00.
`CC(=O)N[C@H](C(=O)N[C@H]1C(=O)O[C@H]1C)c1ccc(OCc2ccccc2)cc1` was tested, and the pIC50 was less than 4.00.
`N#Cc1ccc(OCCn2nnn(-c3ccccc3)c2=O)cc1` was tested, and the pIC50 was less than 4.00.
Work on `O=C(O)c1cc2cc(-c3nccc(C(F)F)n3)ccc2[nH]1` yielded a pIC50 of less than 4.00.
`NC[C@@H]1CN(c2cc(-c3ccc(N)nc3)cc3c2COB3O)C(=O)O1` gave a pIC50 of less than 4.00.
`N#Cc1ccc(S(=O)(=O)CCn2nc(-c3ccco3)oc2=O)cc1` was tested, and the pIC50 was less than 4.00.
With `COCc1cc(Cl)cc(S(=O)(=O)Nc2cccc(-c3nnn[nH]3)c2)c1` the pIC50 was less than 4.00.
`CSC1(C(=O)N[C@H](CC(=O)Nc2cccc(CN)c2)c2ccc(OCc3ccccc3)c(Br)c2)CCC1` was tested, and the pIC50 was 4.46.
Work on `CN(C)Cc1nnc(NC(=O)[C@@H](NC(=O)OCc2ccccc2)c2ccc(OCc3ccccc3)cc2)s1` yielded a pIC50 of less than 4.00.
`CC(C)[C@@H]1C(=O)O[C@H]1C(=O)O` gave a pIC50 of less than 4.00.
`C[C@H]1CC[C@@](Cc2nc3ccccc3[nH]2)(C(=O)Nc2cccc(CN)c2)CC1` was tested, and the pIC50 was less than 4.00.
In the case of `O=Cc1ccc(N2CCC(C(=O)NCc3cccc(-c4ccccc4)c3)CC2)cc1`, the pIC50 was 4.27.
In the case of `NCc1cccc(NC(=O)Cc2cc(Cl)cc(NC(=O)OCc3ccccc3)c2)c1`, the pIC50 was 4.07.
`Nc1ccc2ccc(B(O)O)cc2c1` gave a pIC50 of less than 4.00.
`CCN1CCN(c2ccc(NC(=O)C3CCN(c4ccc(C=O)cc4)CC3)cc2)CC1` showed a pIC50 of 4.14.
Work on `CS(=O)(=O)c1ccc(N2CCN(C(=O)C3CCN(c4ccc(C=O)cc4)CC3)CC2)c([N+](=O)[O-])c1` yielded a pIC50 of 4.07.
With `COc1ccc(F)cc1-c1ccc(S(=O)(=O)Nc2cc(Cl)cc(C(=O)O)c2)cc1` the pIC50 was 4.05.
Molecule `Brc1ccsc1CSc1cnn[nH]1` has a pIC50 of less than 4.00.
`O=Cc1ccc(N2CCC(C(=O)NCCN3CCc4ccccc43)CC2)cc1` gave a pIC50 of 4.69.
`NC(=O)c1cc(Cl)ccc1NS(=O)(=O)c1ccc(-c2ccc(F)cc2)cc1` gave a pIC50 of 4.48.
`Cc1sc2nc(-c3cccs3)[nH]c(=O)c2c1C` was tested, and the pIC50 was less than 4.00.
For `Clc1snnc1CN1CCC(c2nc3ccccc3o2)CC1`, the pIC50 was less than 4.00.
Work on `O=C(Nc1ccc(Cl)cc1C(=O)Nc1cccc(C2CCNCC2)c1)OCc1ccccc1` yielded a pIC50 of less than 4.00.
Molecule `NCc1ccc(COc2ccc(-c3ccc(N)nc3)c3c2OB(O)CC3)cc1` has a pIC50 of less than 4.00.
Work on `C[C@H]1c2cc(O)c(O)cc2CCN1C(=O)C1CCN(c2ccc(C=O)cc2)CC1` yielded a pIC50 of 4.09.
With `Brc1cccc2cn(Cc3ncccn3)nc12` the pIC50 was less than 4.00.
With `O=c1oc2cccnc2n1CC=Cc1ccccc1` the pIC50 was less than 4.00.
`c1ccc2[nH]c(CC3CCN(Cc4nccs4)CC3)nc2c1` was tested, and the pIC50 was less than 4.00.
Work on `Cn1c(Sc2nc3ccccc3o2)nc2sccc2c1=O` yielded a pIC50 of less than 4.00.
`O=C(Nc1cc(Cl)cc(C(=O)Nc2cccc(CO)c2)c1)OCc1ccccc1` gave a pIC50 of less than 4.00.
For `CN1CCC[C@H]1COc1cccc([C@@H](NC(=O)OCc2ccccc2)C(=O)Nc2cccc(CN)c2)c1`, the pIC50 was less than 4.00.
`Cc1ccc(CN)cc1-c1cccc([C@H](NC(=O)OCc2ccccc2)C(=O)Nc2cccc(CN)c2)c1` was tested, and the pIC50 was 4.20.
`O=C(NCc1ccco1)c1csc(Br)c1` gave a pIC50 of less than 4.00.
With `CCNC(=O)Nc1cc(Cl)cc(C(=O)Nc2cccc(C3CCNCC3)c2)c1` the pIC50 was less than 4.00.
Work on `O=Cc1ccc(N2CCC(C(=O)Nc3ccc(Br)cc3O)CC2)cc1` yielded a pIC50 of 4.47.
Molecule `NCCCOc1cc2c(c(-c3ccc(N)nc3)c1)CCB(O)O2` has a pIC50 of less than 4.00.
In the case of `Nc1nc(S(=O)(=O)c2ccccc2)c(Cl)s1`, the pIC50 was less than 4.00.
In the case of `CC(C)[C@H](N)P(=O)(Oc1ccc(F)cc1)Oc1ccc(F)cc1`, the pIC50 was less than 4.00.
Work on `O=Cc1ccc(N2CCC(C(=O)NCCC3CCN(Cc4ccccc4)CC3)CC2)cc1` yielded a pIC50 of 4.00.
In the case of `O=C(NCc1nccs1)c1sccc1Cl`, the pIC50 was less than 4.00.
In the case of `CCNC(=O)Nc1cc(Cl)cc(C(=O)Nc2cccc(CN)c2)c1`, the pIC50 was less than 4.00.
In the case of `NCc1cccc(NC(=O)[C@@H]2CCC[C@@H](NC(=O)OCc3ccccc3)C2)c1`, the pIC50 was less than 4.00.
With `CN(C)CCC(=O)N1CCC([C@@H](NC(=O)OCc2ccccc2)C(=O)Nc2cccc(CN)c2)CC1` the pIC50 was less than 4.00.
`O=C(N[C@@H](C(=O)Nc1n[nH]c2c1CNC21CC1)c1ccc(OCc2ccccc2)cc1)OCc1ccccc1` showed a pIC50 of less than 4.00.
With `c1cc(C2CCN(Cc3c[nH]c4ccccc34)CC2)c2ccncc2c1` the pIC50 was less than 4.00.
`c1cc(-c2nnc(NCc3nnn[nH]3)s2)no1` showed a pIC50 of less than 4.00.
For `CC1CCN(CCCCNC(=O)C2CCN(c3ccc(C=O)cc3)CC2)CC1`, the pIC50 was less than 4.00.
With `O=c1ccc(-n2cncn2)nn1CC=Cc1ccccc1` the pIC50 was less than 4.00.
Molecule `CCSc1nnc(SCCn2nc3ccccn3c2=O)s1` has a pIC50 of less than 4.00.
Molecule `Cn1nc(NC(=O)[C@@H](NC(=O)OCc2ccccc2)c2ccc(OCc3ccccc3)cc2)c2c1CNC2` has a pIC50 of less than 4.00.
Molecule `COc1ccc(-n2nnnc2SC(F)F)cc1` has a pIC50 of less than 4.00.
For `O=c1ccccn1-c1ncc(Br)cn1`, the pIC50 was less than 4.00.
With `NCc1cccc(NC(=O)[C@@H](NC(=O)OCc2ccccc2)c2cccc(-c3cncnc3)c2)c1` the pIC50 was less than 4.00.
`Cc1ccc2cccc(NC(=O)C3CCN(c4ccc(C=O)cc4)CC3)c2n1` gave a pIC50 of 4.65.
In the case of `O=c1c2cccn2cnn1Cc1cnc(Cl)s1`, the pIC50 was less than 4.00.
`Cc1nnsc1Cn1ccc(Br)n1` gave a pIC50 of less than 4.00.
With `O=c1c2ccccc2ncn1CCCn1cnc2ccccc2c1=O` the pIC50 was less than 4.00.
`O=S1(=O)CCN(CC#Cc2ccc3sncc3c2)CC1` was tested, and the pIC50 was less than 4.00.
`COC(=O)c1cc2scc(Br)c2[nH]1` was tested, and the pIC50 was less than 4.00.
`CC(=O)Nc1cccc(CNC(=O)C2CCN(c3ccc(C=O)cc3)CC2)c1` gave a pIC50 of 4.01.
`O=C(Nc1cc(Cl)cc(C(=O)N[C@]2(c3nnn[nH]3)CCOC2)c1)OCc1ccccc1` showed a pIC50 of less than 4.00.
`N#Cc1csc(CSc2nnc(C(F)(F)F)s2)n1` gave a pIC50 of less than 4.00.
With `O=C(O)c1cc(Cl)cc(NS(=O)(=O)c2ccc(-c3ccc(F)cc3)cc2)c1` the pIC50 was 4.04.
In the case of `c1cc(Cc2noc(CCc3cscn3)n2)no1`, the pIC50 was less than 4.00.
Work on `CCn1c(=O)c(N2CC[C@H](CO)C2)nc2ccc(C(=O)OC)cc21` yielded a pIC50 of 4.08.
`c1csc(CSc2nnc(Cn3cncn3)o2)c1` showed a pIC50 of less than 4.00.
Molecule `O=C1O[C@H]2CCN(Cc3ccc(OCc4ccccc4)cc3)C[C@H]12` has a pIC50 of less than 4.00.
For `FC(F)(F)c1nnc(COc2cncnc2)s1`, the pIC50 was less than 4.00.
`O=Cc1ccc(N2CCC(C(=O)Nc3ncc(Br)cc3O)CC2)cc1` showed a pIC50 of 4.72.
Molecule `NC(=O)C1(N2CCCCC2)CCN(C(=O)C2CCN(c3ccc(C=O)cc3)CC2)CC1` has a pIC50 of less than 4.60.
In the case of `CCc1cc(C(=O)Nc2cccc(-c3nnn[nH]3)c2)sc1-c1ccc(Cl)cc1`, the pIC50 was 5.22 and 5.25.
`c1cnc2[nH]cc(C3CCN(Cc4c[nH]c5cnccc45)CC3)c2c1` showed a pIC50 of less than 4.00.
For `CC(C)[C@H]1C(=O)O[C@@H]1C(=O)O`, the pIC50 was less than 4.00.
`NCc1cccc(S(=O)(=O)Cc2cc(Cl)cc(NC(=O)OCc3ccccc3)c2)c1` showed a pIC50 of less than 4.00.
For `NCc1cccc(NC(=O)c2cc(N)cc(NC(=O)OCc3ccccc3)c2)c1`, the pIC50 was less than 4.00.
`CSCc1nnc(SCc2ccncc2)o1` showed a pIC50 of less than 4.00.
`c1csc(-c2nnc(Sc3ncnc4sccc34)o2)c1` gave a pIC50 of less than 4.00.
Work on `CC(C)[C@H](NC(=O)[C@@H]1CCCN1C(=O)OCc1ccccc1)P(=O)(Oc1ccc(F)cc1)Oc1ccc(F)cc1` yielded a pIC50 of less than 4.00.
With `NC[C@@H]1CN(c2cc(N3CC[C@H](N)C3)cc3c2COB3O)C(=O)O1` the pIC50 was less than 4.00.
In the case of `O=C(O)c1cc(Cl)ccc1NS(=O)(=O)c1ccc(Nc2ccccc2F)nc1`, the pIC50 was 4.36.
`O=C(Nc1cc(Cl)cc(C(=O)Nc2ccc3c(c2)CNCC3)c1)OCc1ccccc1` showed a pIC50 of 4.24.
`c1ccc([C@@H]2C[C@H]3C[C@@H]2C[C@H]3NCc2n[nH]c3ccccc23)cc1` was tested, and the pIC50 was less than 4.00.
